According to ChEMBL document CHEMBL1156824, “Physicochemical space for optimum oral bioavailability: contribution of human intestinal absorption and first-pass elimination” (J Med Chem, 2010):

Species on record: Homo sapiens
Test: Hepatic clearance in human
Conditions: in vivo

## CO[C@H]1/C=C/O[C@@]2(C)Oc3c(C)c(O)c4c(O)c(c(/C=N/N5CCN(C)CC5)c(O)c4c3C2=O)NC(=O)/C(C)=C\C=C\[C@H](C)[C@H](O)[C@@H](C)[C@@H](O)[C@@H](C)[C@H](OC(C)=O)[C@@H]1C [RIFAMPIN]
  CL: 1.3 mL/min/kg

## CN1C(=O)C(O)N=C(c2ccccc2Cl)c2cc(Cl)ccc21 (stereo not given) [LORMETAZEPAM]
  CL: 4 mL/min/kg

## CN(Cc1cnc2nc(N)nc(N)c2n1)c1ccc(C(=O)N[C@@H](CCC(=O)O)C(=O)O)cc1 [METHOTREXATE]
  CL: 0.4 mL/min/kg

## COc1nc(C)nc(Cl)c1N=C1NCCN1 [MOXONIDINE]
  CL: 3.5 mL/min/kg

## C=CC[C@@H]1/C=C(\C)C[C@H](C)C[C@H](OC)[C@H]2O[C@@](O)(C(=O)C(=O)N3CCCC[C@H]3C(=O)O[C@H](/C(C)=C/[C@@H]3CC[C@@H](O)[C@H](OC)C3)[C@H](C)[C@@H](O)CC1=O)[C@H](C)C[C@@H]2OC [TACROLIMUS ANHYDROUS]
  CL: 0.7 mL/min/kg

## CC(C)(C)NCC(O)c1cc(O)cc(O)c1 (stereo not given) [TERBUTALINE]
  CL: 1.2 mL/min/kg

## CC(C)(C)NC[C@H](O)COc1nsnc1N1CCOCC1 [TIMOLOL]
  CL: 7.1 mL/min/kg

## Cc1[nH]c(=O)c(C#N)cc1-c1ccncc1 [MILRINONE]
  CL: 1.2 mL/min/kg

## CN(CCOc1ccc(CC2SC(=O)NC2=O)cc1)c1ccccn1 (stereo not given) [ROSIGLITAZONE]
  CL: 0.7 mL/min/kg

## COc1ccc(Cc2nccc3cc(OC)c(OC)cc23)cc1OC [PAPAVERINE]
  CL: 11 mL/min/kg

## N=C(N)c1ccc(CNC(=O)[C@@H]2CCN2C(=O)[C@H](NCC(=O)O)C2CCCCC2)cc1
  CL: 0.3 mL/min/kg

## CCCCc1ncc(/C=C(\Cc2cccs2)C(=O)O)n1Cc1ccc(C(=O)O)cc1 [EPROSARTAN]
  CL: 1.2 mL/min/kg

## Cc1onc(-c2c(Cl)cccc2Cl)c1C(=O)N[C@@H]1C(=O)N2[C@@H]1SC(C)(C)[C@@H]2C(=O)O [DICLOXACILLIN]
  CL: 0.8 mL/min/kg

## CN(C)C(=O)Oc1ccc[n+](C)c1 [PYRIDOSTIGMINE]
  CL: 2.4 mL/min/kg

## CC(=O)NC[C@H]1CN(c2ccc(N3CCOCC3)c(F)c2)C(=O)O1 [LINEZOLID]
  CL: 1.2 mL/min/kg

## COCCOC(=O)C1=C(C)NC(C)=C(C(=O)OC(C)C)C1c1cccc([N+](=O)[O-])c1 (stereo not given) [NIMODIPINE]
  CL: 15 mL/min/kg

## CNS(=O)(=O)CCc1ccc2[nH]cc(C3CCN(C)CC3)c2c1
  CL: 3.5 mL/min/kg

## CC[C@H](C)C(=O)O[C@H]1C[C@H](O)C=C2C=C[C@H](C)[C@H](CC[C@@H](O)C[C@@H](O)CC(=O)O)[C@H]21 [PRAVASTATIN]
  CL: 7.7 mL/min/kg

## CCC(C)n1ncn(-c2ccc(N3CCN(c4ccc(OCC5COC(Cn6cncn6)(c6ccc(Cl)cc6Cl)O5)cc4)CC3)cc2)c1=O (stereo not given) [ITRACONAZOLE]
  CL: 5.1 mL/min/kg

## C[C@H](/C=C/[C@H](C)C(C)(C)O)[C@H]1CC[C@H]2/C(=C/C=C3C[C@@H](O)C[C@H](O)C3)CCC[C@]12C [PARICALCITOL]
  CL: 0.9 mL/min/kg

## CCN(CC)CCCC(C)Nc1ccnc2cc(Cl)ccc12 (stereo not given) [CHLOROQUINE]
  CL: 1.8 mL/min/kg

## CCN(CC)CCNC(=O)c1cc(Cl)c(N)cc1OC [METOCLOPRAMIDE]
  CL: 4.6 mL/min/kg

## CC1=C(C(=O)O)N2C(=O)[C@@H](NC(=O)[C@H](N)c3ccc(O)cc3)[C@H]2SC1 [CEFADROXIL]
  CL: 0.2 mL/min/kg

## O=C1Nc2ccc(Cl)cc2C(c2ccccc2Cl)=NC1O (stereo not given) [LORAZEPAM]
  CL: 1 mL/min/kg

## CC(C)NCC(O)COc1ccc(COCCOC(C)C)cc1 (stereo not given) [BISOPROLOL]
  CL: 1.4 mL/min/kg

## CC1(C)S[C@@H]2[C@H](NC(=O)[C@H](N)c3ccc(O)cc3)C(=O)N2[C@H]1C(=O)O [AMOXICILLIN]
  CL: 1.4 mL/min/kg

## CC(C)NCC(O)COc1cccc2ccccc12 (stereo not given) [PROPRANOLOL]
  CL: 10.8 mL/min/kg

## COc1ccccc1OCCNCC(O)COc1cccc2[nH]c3ccccc3c12 (stereo not given) [CARVEDILOL]
  CL: 7.7 mL/min/kg

## C#CCN(C)[C@H](C)Cc1ccccc1 [SELEGILINE]
  CL: 19.8 mL/min/kg

## C[C@@H]1O[C@@H]1P(=O)(O)O [FOSFOMYCIN]
  CL: 0.02 mL/min/kg
